One data set relates to C[C@H](N)C(=O)O. Briefly: purified protein, by the assay type.
For data set [1], the target named is M. tuberculosis alanine racemase (Mycobacterium tuberculosis, UniProt P9WQA9). In kind it is biochemical.
For data set [2], the target named is T1, M. smegmatis alanine racemase (Mycolicibacterium smegmatis, UniProt P94967).
T1 sequence (P94967 1-389): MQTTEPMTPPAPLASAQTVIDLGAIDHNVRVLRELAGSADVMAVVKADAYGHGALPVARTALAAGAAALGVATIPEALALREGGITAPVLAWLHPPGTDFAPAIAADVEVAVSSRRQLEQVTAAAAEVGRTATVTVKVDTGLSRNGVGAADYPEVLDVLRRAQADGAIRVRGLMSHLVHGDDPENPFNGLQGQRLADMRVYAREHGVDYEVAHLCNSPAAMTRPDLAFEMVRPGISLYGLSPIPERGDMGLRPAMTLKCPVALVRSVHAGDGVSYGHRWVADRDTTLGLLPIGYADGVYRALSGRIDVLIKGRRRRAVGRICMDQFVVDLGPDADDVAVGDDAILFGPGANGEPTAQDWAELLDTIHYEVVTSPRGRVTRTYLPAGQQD
Briefly: Alanine racemase assay. In kind it is biochemical.

The subject of another data set is M. tuberculosis. Briefly: Microtiter broth dilution MIC, M. tuberculosis. In kind it is cell-based. Particulars: Mycobacterium tuberculosis, read-out: Mtb MIC.
A further data set concerns M. smegmatis. Briefly: Microtiter broth dilution MIC, M. smegmatis. In kind it is cell-based. (In general: In broth dilution the organism is exposed to a series of concentrations in liquid medium.)
The subject of a further data set is M. tuberculosis H37Rv. Kind of data set: Microtiter broth dilution MIC, M. tuberculosis H37Rv. In kind it is cell-based. The following applies: Mycobacterium tuberculosis.
Data set [3] has as its system M. smegmatis and M. tuberculosis growth. Briefly: MIC in the presence of 5 mM D-alanine in the growth medium. In kind it is cell-based. The following applies: data not shown.
Substrate in the data set “Alanine racemase assay”: C[C@H](N)C(=O)O
Kind of data set: Alanine racemase assay. Particulars: other: L-alanine to D-alanine, recombinant enzyme. The format is biochemical, M. smegmatis.

The Km is the concentration of substrate that gives half-maximal velocity. One may read the Vmax as the rate approached at saturating substrate. What is called IC50 is the concentration that inhibits the measured activity by half. Low readings indicate greater potency, high ones weaker potency. The MIC is the lowest concentration found to suppress growth.

Values after ≈ are worked out from the molar mass of the structure shown.

M. tuberculosis alanine racemase, sequence (P9WQA9 whole entry): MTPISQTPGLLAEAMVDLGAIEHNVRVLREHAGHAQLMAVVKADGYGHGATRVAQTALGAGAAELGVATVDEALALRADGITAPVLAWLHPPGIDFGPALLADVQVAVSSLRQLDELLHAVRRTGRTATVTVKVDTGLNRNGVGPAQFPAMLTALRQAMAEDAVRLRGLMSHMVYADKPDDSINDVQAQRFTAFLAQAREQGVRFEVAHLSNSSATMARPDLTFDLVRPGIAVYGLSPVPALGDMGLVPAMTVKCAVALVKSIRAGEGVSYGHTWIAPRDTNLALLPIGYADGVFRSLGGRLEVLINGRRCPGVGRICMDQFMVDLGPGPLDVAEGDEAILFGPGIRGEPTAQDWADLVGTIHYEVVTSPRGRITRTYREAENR

As for “M. tuberculosis alanine racemase (Mycobacterium tuberculosis H37Rv)”, in the data set on C[C@H](N)C(=O)O, the Km came out at 4 mM and the Vmax was 0.04 mM/min.

Consider `C[C@H](N)C(=O)O` [L-alanine], for which the Kcat stood at 200 in data set [1] and 4300 in data set [2] (L-alanine to D-alanine, recombinant enzyme).

In the case of `N[C@@H]1CON=C1O` [CS, cycloserine], the IC50 in data set [2] is > 100 µM. Also, the minimal inhibitory concentration (MIC) with M. tuberculosis was 6.25 µg/mL (≈ 61.2 µM); in the data set on M. smegmatis (Mycolicibacterium smegmatis, 48 h, read-out: MSM MIC), 25 µg/mL (≈ 245 µM); against M. tuberculosis H37Rv, 6.25 µg/mL (≈ 61.2 µM). Also, the “MSM MIC” value with M. smegmatis (2 days, Mueller Hinton broth) is given as 25 µg/mL. Moreover, in data set [3], the “increase in MIC” value amounted to 3 fold.

B1: M. smegmatis alanine racemase (Mycolicibacterium smegmatis) (protein)
chain: T1 sequence (P94967 1-389)
Take B1: in the data set “Alanine racemase assay”, the Km is given as 8.5 mM and the Vmax is 0.3 mM/min.
